# Reference: patent US6071916A, “HIV protease inhibitor” (priority 1998, dated 2000)
# Structures can show the parent of a compound that is named as a salt.
# Key:
# [1] = oral absorption and bioavailability in animal models; format: in vivo
# [2] = hydrophobic/hydrophilic nature in formulation; format: physicochemical; settings: dispersion during formulation; HCl (dihydrate) requires wetting agents
# HIV protease = settings: assays described in WO 95/16688; cited from earlier work
Structure (SMILES),"rate of absorption ([1]; compared with the existing HCl, HBr and methanesulfonate salts)","bioavailability ([1]; oral, animal models)","oral absorption ([1]; oral, animal models)",hydrophobic or hydrophilic nature [2],inhibition of HIV protease (HIV protease)
CC(C)(C)NC(=O)[C@@H]1CN(Cc2cc3ccccc3o2)CCN1C[C@@H](O)C[C@@H](Cc1ccccc1)C(=O)N[C@H]1c2ccccc2C[C@H]1O [sulfate salt],"more rapidly absorbed than the existing HCl, HBr and methanesulfonate salts",much greater,much greater,hydrophilic,–
"CC(C)(C)NC(=O)[C@@H]1CN(Cc2cc3ccccc3o2)CCN1C[C@@H](O)C[C@@H](Cc1ccccc1)C(=O)N[C@H]1c2ccccc2C[C@H]1O [HCl (dihydrate) salt, reference compound]",–,–,poor,extremely hydrophobic,–
"CC(C)(C)NC(=O)[C@@H]1CN(Cc2cc3ccccc3o2)CCN1C[C@@H](O)C[C@@H](Cc1ccccc1)C(=O)N[C@H]1c2ccccc2C[C@H]1O [Compound A, N-(2(R)-hydroxy-1(S)-indanyl)-2(R)-phenylmethyl-4-(S)-hydroxy-5-(1-(4-(2-benzo[b]furanylmethyl)-2(S)-N'-(t-butylcarboxamido)-piperazinyl))-pentaneamide]",–,–,–,–,potent inhibitor of HIV protease
